Key:
L. major amastigotes = experiment: microbe, parasite or virus in culture; assay type: cell-based; conditions: Leishmania major; intracellular amastigotes in BMDM, 24 h; read-out: Cytotoxicity (μM) L. major amastigotes (IC50)
Description: Luciferase-transgenic (Luc-tg) L. major has been generated as described previously. The virulence of Luc-tg L. major was maintained by passage in female BALB/c mice and promastigotes were grown in vitro in blood agar cultures with addition of 50 μg/mL hygromycin B using the same conditions as described above.
A detailed protocol of antileishmanial investigations against intracellular L. major amastigotes residing within bone marrow-derived macrophages (BMDM) is described elsewhere. Briefly, 2 × 10^5/ml BMDM were infected with Luc-tg L. major promastigotes at a ratio of 1:15 for 24 h. These infected BMDM were cultured in the absence or presence of increasing concentrations of the tested compounds 1 and 2 for 24 h prior to the supplement of Britelite plus (PerkinElmer, Waltham, MA, USA) for 5 min. Britelite plus is a very sensitive assay for the quantification of firefly luciferase in Leishmania parasites. The luminescence was measured using a Victor X Light 2030 luminometer (PerkinElmer, Waltham, MA, USA).

L. major promastigotes = experiment: MitoTracker Red CMXRos staining, flow cytometry; assay type: cell-based, Leishmania major; conditions: 100 μM
Description: L. major promastigotes were harvested from blood-agar cultures and washed twice with DPBS (900 × g for 5 min at RT). 2 × 10^6 promastigotes were dissolved in 180 μl RPMI complete medium and seeded in a 96 well plate. Parasites were incubated with 20 μL of compound 1 (final concentration: 100 μM), compound 2 (final concentration: 100 μM) and with 20 μL of DMSO, respectively, for 30 min, 45 min, 60 min, or 120 min at 27°C in a 5% CO2. After incubation 2 μl of MitoTracker Red CMXRos (final concentration: […]) (Life Technologies, Darmstadt, Germany) was added for 15 min at 27°C. Samples were directly acquired using a MACSQuant Analyzer (Miltenyi Biotech, Bergisch Gladbach, Germany) and MitoTracker-positive parasites were analyzed using MACS Quant Analyzing software.

L. major = experiment: In vivo antileishmanial activity in L. major-infected BALB/c mice
Description: Female BALB/c mice (11 per group; three groups in total) were infected with 2 × 10^5 L. major promastigotes in 30 μL phosphate-buffered saline (PBS) into the right hind footpad under isoflurane inhalation anaesthesia using the UniVet Porta system (Groppler, Deggendorf, Germany). The clinical manifestation of L. major infection was monitored twice a week by determination of the body weight (g) and footpad size (mm) of the infected (iFP) and the non-infected footpad (niFP) serving as negative control. The footpad swelling describes the difference in mm between the iFP and niFP of individual mice. Three weeks post infection (p.i.) the mice were randomly divided into three groups of 11 for different treatment regimens. On day 21, 25, and 28 p.i. the respective groups were either left untreated, treated intraperitoneally (i.p.) with 100 μl of solvent (infected, 50% DMSO/PBS) or 100 μl 50 mg/kg/day of compound 2 in 50% DMSO/PBS. This high dose of compound 2 was chosen to identify its antileishmanial in vivo efficacy in L. major-infected BALB/c mice. The close monitoring of body weight and footpad swelling was continued until the end of experiment. On day 35 p.i. mice were sacrificed by CO2 inhalation and single cell suspensions from the iFP, draining popliteal lymph nodes (pLN) and spleens were obtained. The parasite burden was determined by limiting dilution assays as described previously. It was not necessary to apply any analgesics or anaesthetics during the animal trials.

[1] = 50 mg/kg/day i.p. days 21, 25, 28, day 35 p.i.

Row | Compound | IC50 (L. major amastigotes) [µM] | MitoTracker-positive cells, percentage of DMSO control (100%) (L. major promastigotes; 60 min) [%] | MitoTracker-positive cells, percentage of DMSO control (100%) (L. major promastigotes; 120 min) [%] | Side effects in vivo (L. major; 50 mg/kg/day i.p. days 21, 25, 28) | Parasite burden in the spleen (LDA) (L. major; [1]) | Reduction of parasite burden within the infected footpads (LDA) (L. major; [1]) | Reduction of parasite burden within the popliteal lymph nodes (LDA) (L. major; [1]) | Body weight of infected mice (L. major; 50 mg/kg/day i.p. on days 21, 25, 28 p.i., during the treatment regimen) | Footpad swelling (difference between infected and non-infected footpad) (L. major; 50 mg/kg/day i.p. on days 21, 25, 28 p.i., vs untreated or solvent control-treated mice)
1 | CC1(C)C2CCC1(C)C(OC(=O)CCc1ccccc1)C2 (single isomer, unassigned; (-)) [Compound 2, (-)-bornyl 3-phenylpropionate] | 89.1 | 75.2 | 60.2 | did not have any strong side effects | only numerically reduced | ~ 100 fold | ~ 10.000 fold | not affected | reduced footpad swelling
2 | CC1(C)C2CCC1(C)C(OC(=O)C=Cc1ccccc1)C2 (single isomer, unassigned; (-)) [Compound 1, (-)-Bornyl cinnamate] | 10.9 | 75 | 63 | – | – | – | – | – | –

From paper PMC4640567, “Cinnamic Acid Bornyl Ester Derivatives from Valeriana wallichii Exhibit Antileishmanial In Vivo Activity in Leishmania major-Infected BALB/c Mice” (PLoS ONE, 2015)
